Test results reported in ChEMBL document CHEMBL2073974, “Identification of a novel gene family encoding human liver-specific organic anion transporter LST-1” (J Biol Chem, 1999).

B1: Solute carrier organic anion transporter family member 1B1 (Homo sapiens) (protein)
chain: MDQNQHLNKTAEAQPSENKKTRYCNGLKMFLAALSLSFIAKTLGAIIMKSSIIHIERRFEISSSLVGFIDGSFEIGNLLVIVFVSYFGSKLHRPKLIGIGCFIMGIGGVLTALPHFFMGYYRYSKETNINSSENSTSTLSTCLINQILSLNRASPEIVGKGCLKESGSYMWIYVFMGNMLRGIGETPIVPLGLSYIDDFAKEGHSSLYLGILNAIAMIGPIIGFTLGSLFSKMYVDIGYVDLSTIRITPTDSRWVGAWWLNFLVSGLFSIISSIPFFFLPQTPNKPQKERKASLSLHVLETNDEKDQTANLTNQGKNITKNVTGFFQSFKSILTNPLYVMFVLLTLLQVSSYIGAFTYVFKYVEQQYGQPSSKANILLGVITIPIFASGMFLGGYIIKKFKLNTVGIAKFSCFTAVMSLSFYLLYFFILCENKSVAGLTMTYDGNNPVTSHRDVPLSYCNSDCNCDESQWEPVCGNNGITYISPCLAGCKSSSGNKKPIVFYNCSCLEVTGLQNRNYSAHLGECPRDDACTRKFYFFVAIQVLNLFFSALGGTSHVMLIVKIVQPELKSLALGFHSMVIRALGGILAPIYFGALIDTTCIKWSTNNCGTRGSCRTYNSTSFSRVYLGLSSMLRVSSLVLYIILIYAMKKKYQEKDINASENGSVMDEANLESLNKNKHFVPSAGADSETHC

Assays:
[1] = biological target: T1, Solute carrier organic anion transporter family member 1B1 (Homo sapiens, UniProt Q9Y6L6); experiment: (§1) TP_TRANSPORTER: uptake in Xenopus laevis oocytes; type: functional, cell-based; conditions: oocyte
T1 sequence (Q9Y6L6 whole entry): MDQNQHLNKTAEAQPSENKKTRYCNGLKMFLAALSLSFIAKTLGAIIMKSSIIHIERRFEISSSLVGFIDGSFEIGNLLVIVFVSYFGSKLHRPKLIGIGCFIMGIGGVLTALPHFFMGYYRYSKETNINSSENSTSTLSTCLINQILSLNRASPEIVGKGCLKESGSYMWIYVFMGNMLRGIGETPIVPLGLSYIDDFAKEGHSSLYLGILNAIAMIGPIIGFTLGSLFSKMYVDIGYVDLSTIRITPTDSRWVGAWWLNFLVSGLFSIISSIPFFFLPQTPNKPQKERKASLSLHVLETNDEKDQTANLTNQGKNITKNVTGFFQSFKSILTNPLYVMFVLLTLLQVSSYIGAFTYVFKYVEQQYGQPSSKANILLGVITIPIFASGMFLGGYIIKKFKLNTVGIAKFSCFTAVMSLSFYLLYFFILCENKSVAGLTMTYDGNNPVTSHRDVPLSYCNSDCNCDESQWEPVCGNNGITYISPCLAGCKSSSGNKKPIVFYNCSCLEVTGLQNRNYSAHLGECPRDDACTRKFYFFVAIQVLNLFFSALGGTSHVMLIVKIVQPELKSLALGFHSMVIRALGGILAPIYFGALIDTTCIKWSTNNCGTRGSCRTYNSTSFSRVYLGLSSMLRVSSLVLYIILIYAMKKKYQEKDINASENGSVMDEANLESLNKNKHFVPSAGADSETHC

[2] = substrate: N[C@@H](Cc1cc(I)c(Oc2cc(I)c(O)c(I)c2)c(I)c1)C(=O)O; experiment: as §1; type: functional, cell-based, Oocyte
[3] = substrate: N[C@@H](Cc1cc(I)c(Oc2ccc(O)c(I)c2)c(I)c1)C(=O)O; experiment: as §1; type: functional, cell-based, Oocyte

Molecule	Activity [1]	Km [2]	Km [3]
CCCCC[C@H](O)/C=C/[C@H]1[C@H](O)CC(=O)[C@@H]1C/C=C\CCCC(=O)O [DINOPROSTONE]	substrate [+]	–	–
C[C@]12CC[C@@H]3c4ccc(O)cc4CC[C@H]3[C@@H]1CC[C@@H]2O[C@@H]1O[C@H](C(=O)O)[C@@H](O)[C@H](O)[C@H]1O [ESTRADIOL 17B GLUCURONIDE]	substrate [+]	–	–
CCCCC/C=C\C\C=C/C=C/C=C/[C@@H](SC[C@@H](NC(=O)CC[C@H](N)C(=O)O)C(=O)NCC(=O)O)[C@@H](O)CCCC(=O)O [LEUKOTRIEN C4]	substrate [+]	–	–
CCCCC/C=C\C\C=C/C=C/C=C/[C@@H](SC[C@H](N)C(=O)O)[C@@H](O)CCCC(=O)O [LEUKOTRIEN E4]	substrate [+]	–	–
C[C@]12CC[C@H](OS(=O)(=O)O)CC1=CC[C@@H]1[C@@H]2CC[C@]2(C)C(=O)CC[C@@H]12 [PRASTERONE SULFURIC ACID]	substrate [+]	–	–
CCCCC[C@H](O)/C=C/[C@H]1OC(O)C[C@H](O)[C@@H]1C/C=C\CCCC(=O)O (stereo partly drawn) [THROMBOXANE B2]	substrate [+]	–	–
B1	–	3 µM	2.7 µM
